Data from PubChem BioAssay AID330 (DTP/NCI, 2004).
Several values for one entry are separate records, joined by “and”; a condition that tells them apart may be missing. Equal entries are not always repeated. Toxic doses and inconclusive results are not listed. Rule for the calls: active = survival T/C of 150% or more; inactive = T/C below 125% in these data.

System: P388 leukemia ip, CD2F1 mice, survival T/C
Assay: NCI In Vivo Anticancer Drug Screen. Data for tumor model P388 Leukemia (intraperitoneal) in CD2F1 (CDF1) mice
Conditions: endpoint: median survival time, higher = longer survival
How it was run: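 Mice carrying the transplanted tumor received test compound or vehicle. Survival was recorded in each group, and the value is the treated-group measurement divided by that of the vehicle-treated control group.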

[1] = dose: 50.0 mg/kg/injection, schedule: Q01DX005 (ip), vehicle: saline with Tween-80
[2] = dose: 100.0 mg/kg/injection, schedule: Q01DX005 (ip), vehicle: saline with Tween-80
[3] = dose: 60.0 mg/kg/injection, schedule: Q01DX005 (ip), vehicle: saline with Tween-80
[4] = dose: 120.0 mg/kg/injection, schedule: Q01DX005 (ip), vehicle: saline with Tween-80

Measured: T/C

C=CC(C)(C)c1cc2cc3c(cc2oc1=O)OC1(C)CCC(C(C)(C)O)OC1C3 (stereo not given)
inactive: dose: 12.5 mg/kg/injection, schedule: Q01DX005 (ip), vehicle: saline with Tween-80 99 % of control | dose: 25.0 mg/kg/injection, schedule: Q01DX005 (ip), vehicle: saline with Tween-80 99 % of control | [1] 93 % of control | [2] 89 % of control

Cc1ccc2c(N(C)C)cc(N(C)C)nc2c1C
inactive: dose: 50.0 mg/kg/injection, schedule: Q01DX009 (ip), vehicle: Klucel (hydroxypropylcellulose) (HPC) 104 % of control | dose: 100.0 mg/kg/injection, schedule: Q01DX009 (ip), vehicle: Klucel (hydroxypropylcellulose) (HPC) 105 % of control

COc1cc(-c2nn(CN3CCOCC3)c(=S)n2C)cc(OC)c1OC
inactive: dose: 50.0 mg/kg/injection, schedule: Q01DX005 (ip), vehicle: Klucel (hydroxypropylcellulose) (HPC) 103 % of control | dose: 100.0 mg/kg/injection, schedule: Q01DX005 (ip), vehicle: Klucel (hydroxypropylcellulose) (HPC) 103 % of control | dose: 200.0 mg/kg/injection, schedule: Q01DX005 (ip), vehicle: Klucel (hydroxypropylcellulose) (HPC) 100 % of control

COC(=O)C(N)CSCSCc1ccccc1 (stereo not given)
inactive: dose: 3.13 mg/kg/injection, schedule: Q01DX009 (ip), vehicle: water 90 % of control | dose: 6.25 mg/kg/injection, schedule: Q01DX009 (ip), vehicle: water 90 % of control | dose: 12.5 mg/kg/injection, schedule: Q01DX009 (ip), vehicle: water 93 % of control | dose: 25.0 mg/kg/injection, schedule: Q01DX009 (ip), vehicle: saline 100 % of control | dose: 25.0 mg/kg/injection, schedule: Q01DX009 (ip), vehicle: water 90 % of control | dose: 50.0 mg/kg/injection, schedule: Q01DX009 (ip), vehicle: saline 98 % of control | dose: 50.0 mg/kg/injection, schedule: Q01DX009 (ip), vehicle: water 90 % of control | dose: 100.0 mg/kg/injection, schedule: Q01DX009 (ip), vehicle: saline 101 % of control

Cc1cc(C)nc(N/N=C\c2c(Cl)cccc2Cl)n1
inactive: dose: 50.0 mg/kg/injection, schedule: Q04DX003 (ip), vehicle: Klucel (hydroxypropylcellulose) (HPC) 100 % of control | dose: 100.0 mg/kg/injection, schedule: Q04DX003 (ip), vehicle: Klucel (hydroxypropylcellulose) (HPC) 98 % of control | dose: 200.0 mg/kg/injection, schedule: Q04DX003 (ip), vehicle: Klucel (hydroxypropylcellulose) (HPC) 94 % of control

COc1cccc2c1C(=O)c1c(O)c3c(c(O)c1C2=O)CC(O)(C(C)NCCCO)CC3OC1CC(N)C(O)C(C)O1 (stereo not given)
active: dose: 24.0 mg/kg/injection, schedule: Q01DX009 (ip), vehicle: water 168 % of control and 172 % of control | dose: 48.0 mg/kg/injection, schedule: Q01DX009 (ip), vehicle: water 173 % of control
inactive: dose: 1.5 mg/kg/injection, schedule: Q01DX009 (ip), vehicle: water 111 % of control

CCCCCCn1c(=O)cc2n(c1=O)CCC2
inactive: [3] 103 % of control | [4] 101 % of control

CN1C2CCC1C1N=NN(c3cc(C(F)(F)F)cc(C(F)(F)F)c3)C1(N1CCOCC1)C2 (stereo not given)
inactive: dose: 50.0 mg/kg/injection, schedule: Q01DX005 (ip), vehicle: Klucel + Tween-80 102 % of control | dose: 100.0 mg/kg/injection, schedule: Q01DX005 (ip), vehicle: Klucel + Tween-80 97 % of control

CCCCCCCCCCC1SCC(=O)N1c1nncs1 (stereo not given)
inactive: [3] 102 % of control | [4] 97 % of control | dose: 240.0 mg/kg/injection, schedule: Q01DX005 (ip), vehicle: saline with Tween-80 94 % of control

C#CCn1c2c(c3ccccc3c1=O)C(=O)c1ccccc1-2
inactive: [1] 88 % of control | [2] 88 % of control | dose: 200.0 mg/kg/injection, schedule: Q01DX005 (ip), vehicle: saline with Tween-80 101 % of control

CCC(C)C1NC(=O)C(NC(=O)c2c3[nH]c4c(C(=O)NC5C(=O)NC(C(C)CC)C(=O)N6CCCC6C(=O)N(C)CC(=O)N(C)C(C(C)C)C(=O)OC5C)ccc(C)c4oc-3c(C)c(=O)c2=O)C(C)OC(=O)C(C(C)C)N(C)C(=O)CN(C)C(=O)C2CCCN2C1=O (stereo not given)
inactive: dose: 0.05 mg/kg/injection, schedule: Q01DX009 (ip), vehicle: water 99 % of control | dose: 0.1 mg/kg/injection, schedule: Q01DX009 (ip), vehicle: water 104 % of control | dose: 0.2 mg/kg/injection, schedule: Q01DX009 (ip), vehicle: water 95 % of control | dose: 0.4 mg/kg/injection, schedule: Q01DX009 (ip), vehicle: water 100 % of control and 104 % of control | dose: 0.8 mg/kg/injection, schedule: Q01DX009 (ip), vehicle: water 101 % of control and 96 % of control | dose: 1.6 mg/kg/injection, schedule: Q01DX009 (ip), vehicle: water 102 % of control and 110 % of control | dose: 3.2 mg/kg/injection, schedule: Q01DX009 (ip), vehicle: water 110 % of control | dose: 6.4 mg/kg/injection, schedule: Q01DX009 (ip), vehicle: water 123 % of control

O=C1C=C(c2ccccc2)C(c2ccccc2)C1 (stereo not given)
inactive: dose: 50.0 mg/kg/injection, schedule: Q01DX009 (ip), vehicle: saline with Tween-80 89 % of control | dose: 100.0 mg/kg/injection, schedule: Q01DX009 (ip), vehicle: saline with Tween-80 93 % of control | dose: 200.0 mg/kg/injection, schedule: Q01DX009 (ip), vehicle: saline with Tween-80 93 % of control | dose: 400.0 mg/kg/injection, schedule: Q01DX009 (ip), vehicle: saline with Tween-80 93 % of control
